{"source": "patent US20230158102A1", "about": "(priority 2020, published 2023)", "key": {"SARS-CoV-2": {"system": "SARS-CoV-2", "test": "Transgenic K18-hACE2 mice infected with SARS-CoV-2", "format": "in vivo"}, "eEF1A": {"molecular_target": "T1, eEF1A (Oryctolagus cuniculus, UniProt Q71V39)", "T1 construct": "eEF1A purified from rabbit muscle; from tissue; host or cells: rabbit muscle", "T1 sequence (Q71V39 whole entry)": "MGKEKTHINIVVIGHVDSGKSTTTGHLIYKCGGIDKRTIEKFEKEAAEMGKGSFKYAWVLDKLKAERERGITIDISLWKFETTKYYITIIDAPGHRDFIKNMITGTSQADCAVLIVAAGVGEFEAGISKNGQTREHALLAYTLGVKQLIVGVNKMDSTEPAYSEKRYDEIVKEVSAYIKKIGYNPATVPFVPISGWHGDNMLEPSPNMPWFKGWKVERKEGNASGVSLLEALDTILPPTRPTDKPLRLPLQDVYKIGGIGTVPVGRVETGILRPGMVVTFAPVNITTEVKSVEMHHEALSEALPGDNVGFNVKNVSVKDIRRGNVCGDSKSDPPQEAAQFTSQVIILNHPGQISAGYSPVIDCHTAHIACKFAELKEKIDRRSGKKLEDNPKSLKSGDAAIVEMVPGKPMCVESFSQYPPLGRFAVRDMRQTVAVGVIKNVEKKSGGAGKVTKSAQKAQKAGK", "settings": "14C-plitidepsin, eEF1A purified from rabbit muscle; cited from earlier work"}, "Vero E6 cells": {"system": "Vero E6 cells", "settings": "Vero E6, absence of virus, 3 days"}, "SARS-CoV-2 (COVID-19)": {"system": "SARS-CoV-2 (COVID-19)", "test": "Study APLICOV-PC (NCT04382066): efficacy in patients hospitalised for COVID-19", "format": "in vivo, human", "settings": "for Patients requiring oxygen therapy at Day 7, (%): 168 h; for Patients discharged from hospital by Day 8, (%): 192 h; for Patients discharged from hospital by Day 15, (%) / Patients requiring oxygen therapy at Day 15, (%): 360 h"}}, "note": "Where two headings read alike, the source gives them in different places.", "data": [{"molecule": "CC[C@H](C)[C@H]1NC(=O)[C@@H](NC(=O)[C@@H](CC(C)C)N(C)C(=O)[C@@H]2CCCN2C(=O)C(C)=O)[C@@H](C)OC(=O)[C@H](Cc2ccc(OC)cc2)N(C)C(=O)[C@@H]2CCCN2C(=O)[C@H](CC(C)C)NC(=O)[C@@H](C)C(=O)[C@H](C(C)C)OC(=O)C[C@@H]1O", "note": "[PLD, (−)-(3S,6R,7S,10R,11S,15S,17S,20S,25aS)-11-hydroxy-3-(4-methoxybenzyl)-2,6,17-trimethyl-15-(1-methylethyl)-7-[[(2R)-4-methyl-2-[methyl[[(2S)-1-(2-oxopropanoyl)pyrrolidin-2-yl]carbonyl]amino]pentanoyl]amino]-10-[(1S)-1-methylpropyl]-20-(2-methylpropyl)tetradecahydro-15H-pyrrolo[2,1-f]-[1,15,4,7,10,20]dioxatetrazacyclotricosine-1,4,8,13,16,18,21(17H)-heptone]", "values": [{"measurement": "Antiviral effects in vivo", "setting": "SARS-CoV-2", "result": "potent antiviral effects in vivo"}, {"measurement": "Binding affinity", "setting": "eEF1A", "result": "high affinity"}, {"measurement": "Rate of dissociation", "setting": "eEF1A", "result": "low rate of dissociation"}, {"measurement": "Cytotoxic effects of the drug at concentrations inhibiting viral-induced cytopathic effects", "setting": "Vero E6 cells", "result": "no cytotoxic effects of the drug were observed"}, {"measurement": "Mean time from baseline until undetectable viral load", "setting": "SARS-CoV-2 (COVID-19)", "result": 11, "unit": "days"}, {"measurement": "Mortality from Day 1 to Day 31, (%)", "setting": "SARS-CoV-2 (COVID-19)", "result": "(4.5) %"}, {"measurement": "Patients requiring ICU admission from Day 1 to Day 7, (%)", "setting": "SARS-CoV-2 (COVID-19)", "result": "(11.4) %"}, {"measurement": "Patients requiring ICU admission from Day 1 to Day 15, (%)", "setting": "SARS-CoV-2 (COVID-19)", "result": "(13.6) %"}, {"measurement": "Patients requiring ICU admission from Day 1 to Day 31, (%)", "setting": "SARS-CoV-2 (COVID-19)", "result": "(13.6) %"}, {"measurement": "Patients requiring invasive mechanical ventilation and/or ICU admission from Day 1 to Day 7, (%)", "setting": "SARS-CoV-2 (COVID-19)", "result": "(11.4) %"}, {"measurement": "Patients requiring invasive mechanical ventilation and/or ICU admission from Day 1 to Day 15, (%)", "setting": "SARS-CoV-2 (COVID-19)", "result": "(13.6) %"}, {"measurement": "Patients requiring invasive mechanical ventilation and/or ICU admission from Day 1 to Day 31, (%)", "setting": "SARS-CoV-2 (COVID-19)", "result": "(13.6) %"}, {"measurement": "Patients requiring noninvasive mechanical ventilation from Day 1 to Day 7, (%)", "setting": "SARS-CoV-2 (COVID-19)", "result": "(9.1) %"}, {"measurement": "Patients requiring noninvasive mechanical ventilation from Day 1 to Day 15, (%)", "setting": "SARS-CoV-2 (COVID-19)", "result": "(11.4) %"}, {"measurement": "Patients requiring noninvasive mechanical ventilation from Day 1 to Day 31, (%)", "setting": "SARS-CoV-2 (COVID-19)", "result": "(13.6) %"}, {"measurement": "Mean time from baseline until undetectable viral load", "setting": "SARS-CoV-2 (COVID-19); 1.5 mg", "result": 7, "unit": "days"}, {"measurement": "Mortality from Day 1 to Day 31, (%)", "setting": "SARS-CoV-2 (COVID-19); 1.5 mg", "result": "(7.1) %"}, {"measurement": "Patients requiring ICU admission from Day 1 to Day 7, (%)", "setting": "SARS-CoV-2 (COVID-19); 1.5 mg", "result": "(14.3) %"}, {"measurement": "Patients requiring ICU admission from Day 1 to Day 15, (%)", "setting": "SARS-CoV-2 (COVID-19); 1.5 mg", "result": "(14.3) %"}, {"measurement": "Patients requiring ICU admission from Day 1 to Day 31, (%)", "setting": "SARS-CoV-2 (COVID-19); 1.5 mg", "result": "(14.3) %"}, {"measurement": "Patients requiring invasive mechanical ventilation and/or ICU admission from Day 1 to Day 7, (%)", "setting": "SARS-CoV-2 (COVID-19); 1.5 mg", "result": "(14.3) %"}, {"measurement": "Patients requiring invasive mechanical ventilation and/or ICU admission from Day 1 to Day 15, (%)", "setting": "SARS-CoV-2 (COVID-19); 1.5 mg", "result": "(14.3) %"}, {"measurement": "Patients requiring invasive mechanical ventilation and/or ICU admission from Day 1 to Day 31, (%)", "setting": "SARS-CoV-2 (COVID-19); 1.5 mg", "result": "(14.3) %"}, {"measurement": "Patients requiring noninvasive mechanical ventilation from Day 1 to Day 7, (%)", "setting": "SARS-CoV-2 (COVID-19); 1.5 mg", "result": "(21.4) %"}, {"measurement": "Patients requiring noninvasive mechanical ventilation from Day 1 to Day 15, (%)", "setting": "SARS-CoV-2 (COVID-19); 1.5 mg", "result": "(21.4) %"}, {"measurement": "Patients requiring noninvasive mechanical ventilation from Day 1 to Day 31, (%)", "setting": "SARS-CoV-2 (COVID-19); 1.5 mg", "result": "(21.4) %"}, {"measurement": "Patients requiring oxygen therapy at Day 7, (%)", "setting": "SARS-CoV-2 (COVID-19); 1.5 mg", "result": "(71.4) %"}, {"measurement": "Patients discharged from hospital by Day 8, (%)", "setting": "SARS-CoV-2 (COVID-19); 1.5 mg", "result": "(42.9) %"}, {"measurement": "Patients discharged from hospital by Day 15, (%)", "setting": "SARS-CoV-2 (COVID-19); 1.5 mg", "result": "(78.6) %"}, {"measurement": "Patients requiring oxygen therapy at Day 15, (%)", "setting": "SARS-CoV-2 (COVID-19); 1.5 mg", "result": "(28.6) %"}, {"measurement": "Patients discharged from hospital by Day 31, (%)", "setting": "SARS-CoV-2 (COVID-19); 1.5 mg, 744 h", "result": "(92.9) %"}, {"measurement": "Mean time from baseline until undetectable viral load", "setting": "SARS-CoV-2 (COVID-19); 2 mg", "result": 13, "unit": "days"}, {"measurement": "Patients requiring ICU admission from Day 1 to Day 7, (%)", "setting": "SARS-CoV-2 (COVID-19); 2 mg", "result": "(6.7) %"}, {"measurement": "Patients requiring ICU admission from Day 1 to Day 15, (%)", "setting": "SARS-CoV-2 (COVID-19); 2 mg", "result": "(6.7) %"}, {"measurement": "Patients requiring ICU admission from Day 1 to Day 31, (%)", "setting": "SARS-CoV-2 (COVID-19); 2 mg", "result": "(6.7) %"}, {"measurement": "Patients requiring invasive mechanical ventilation and/or ICU admission from Day 1 to Day 7, (%)", "setting": "SARS-CoV-2 (COVID-19); 2 mg", "result": "(6.7) %"}, {"measurement": "Patients requiring invasive mechanical ventilation and/or ICU admission from Day 1 to Day 15, (%)", "setting": "SARS-CoV-2 (COVID-19); 2 mg", "result": "(6.7) %"}, {"measurement": "Patients requiring invasive mechanical ventilation and/or ICU admission from Day 1 to Day 31, (%)", "setting": "SARS-CoV-2 (COVID-19); 2 mg", "result": "(6.7) %"}, {"measurement": "Patients requiring noninvasive mechanical ventilation from Day 1 to Day 31, (%)", "setting": "SARS-CoV-2 (COVID-19); 2 mg", "result": "(6.7) %"}, {"measurement": "Patients requiring oxygen therapy at Day 7, (%)", "setting": "SARS-CoV-2 (COVID-19); 2 mg", "result": "(66.7) %"}, {"measurement": "Patients discharged from hospital by Day 8, (%)", "setting": "SARS-CoV-2 (COVID-19); 2 mg", "result": "(60.0) %"}, {"measurement": "Patients discharged from hospital by Day 15, (%)", "setting": "SARS-CoV-2 (COVID-19); 2 mg", "result": "(93.3) %"}, {"measurement": "Patients requiring oxygen therapy at Day 15, (%)", "setting": "SARS-CoV-2 (COVID-19); 2 mg", "result": "(6.7) %"}, {"measurement": "Patients discharged from hospital by Day 31, (%)", "setting": "SARS-CoV-2 (COVID-19); 2 mg, 744 h", "result": "(93.3) %"}, {"measurement": "Patients requiring oxygen therapy at Day 31, (%)", "setting": "SARS-CoV-2 (COVID-19); 2 mg, 744 h", "result": "(13.3) %"}, {"measurement": "Mean time from baseline until undetectable viral load", "setting": "SARS-CoV-2 (COVID-19); 2.5 mg", "result": 12, "unit": "days"}, {"measurement": "Mortality from Day 1 to Day 31, (%)", "setting": "SARS-CoV-2 (COVID-19); 2.5 mg", "result": "(6.7) %"}, {"measurement": "Patients requiring ICU admission from Day 1 to Day 7, (%)", "setting": "SARS-CoV-2 (COVID-19); 2.5 mg", "result": "(13.3) %"}, {"measurement": "Patients requiring ICU admission from Day 1 to Day 15, (%)", "setting": "SARS-CoV-2 (COVID-19); 2.5 mg", "result": "(20.0) %"}, {"measurement": "Patients requiring ICU admission from Day 1 to Day 31, (%)", "setting": "SARS-CoV-2 (COVID-19); 2.5 mg", "result": "(20.0) %"}, {"measurement": "Patients requiring invasive mechanical ventilation and/or ICU admission from Day 1 to Day 7, (%)", "setting": "SARS-CoV-2 (COVID-19); 2.5 mg", "result": "(13.3) %"}]}]}
